Measured values from EP0079792A2, “Process for production of urease” (priority 1981, dated 1983).

How the values were obtained:
[1] = test system: urease from Arthrobacter parafineus ATCC 15591; test: Km determination, crude enzymatic solution (Example 2); assay type: biochemical
Protocol: The above reagents are mixed with each other and incubated at 37°C for 5 minutes. To the mixture is added 0.01 ml of an enzyme solution, the enzymatic activity of which is to be determined. The absorba^ncy at OD340nm (=E1) after one minute and that at OD340nm (=E2) after two minutes are recorded at 37°C on a spectrophotometer, respectively.
In this example, each of the strains identified in the following Table 1 is cultured in the same manner as described in Example 1 to obtain microbial cells. From the microbial cells, a crude enzymatic solution is prepared to culculate the enzymatic activity and to determine the Km value.

[2] = substrate: NC(N)=O; test: purified protein, by the assay type; conditions: other: phosphate buffer (pH 7.5), purified enzyme preparate of Example 1

Molecule | Km [1] [mM] | Km [2] [mM]
NC(N)=O [urea] | 20 | –
urease from Corynebacterium lilium ATCC 21644 (Corynebacterium glutamicum ATCC 13032) (protein) MSFEISRKQYTDLYGPTVGDSVRLADTELFLCVEKDYAAIGEEVAFGGGKVIRDGMGQNGTLVRDVDIPDTVITNVIVLDYTGVYKADVALRDGKIFRIGKAGNPNVMENVDIVIGVATDIIAGEGKILTAGGIDTHVHFLGTDQVNTALASGITTMIGGGTGPSQASMATTVTPGQWNTYNMLSAFEGMPMNFGILGKGHGSSKSPLAEQVRAGAIGLKIHEDWGATPSSINTALEVADDMDIQVALHSDTLNEAGFVEDTIEAIAGRVIHTFHTEGAGGGHAPDLIRVAALPNVLPASTNPTLPYTRNTVEEHLDMVMVAHHLNPDIPEDVAFADSRIRAETIAAEDVLHDMGIFSITSSDSQAMGRVGETITRTWQVADHMKRTRGSLTGDAPYNDNNRLRRFIAKYTINPAIAHGVDYVVGSVEEGKFADLVLWDPKFFGVKPDLVIKGGLMVNSLMGDSNGSIPTPQPRTLRNTWGAFGQAVSRSSITFLSQDAIDANVPDLLNLRKQIRGVRGVRNLTKRDMKLNAEMPDIRVDPETYQVFVNGELITSKPAETVPMARRYFLF | – | 20
